Measurements reported in patent US8377990B2, “Conjugates comprising a psychotropic drug or a GABA agonist and an organic acid and their use in treating pain and other CNS disorders” (Ramot at Tel-Aviv University Ltd., priority 2006, dated 2013).
“Also recorded” adds a separate entry of the source.

Key:
[1] = system: Male Balb-c mice; experiment: Hot plate test, latency of the nociceptive reaction to heat; format: in vivo; conditions: for antinociceptive activity (latency to heat): entire period
[2] = system: Wistar rats; conditions: high doses of fluoxetine; Omar et al. Pharmacol. Res. 49 (2004) 119-131; cited from earlier work
[3] = treated orally for 5 consecutive days, AN-214 0.2 mg/kg or equivalent molar dose of AN-216, FIG. 7

2-Propyl-pentanoic acid (valproic acid) 4-aminobutyryloxymethyl ester hydrochloride [AN-216]
antinociceptive activity (latency to heat) [1, 3]: no antinociceptive activity was detected

Cl.NCCCC(=O)OCOC(=O)CCCN [AN-214, 4-Amino-butyric acid 4-amino-butyryloxymethyl ester dihydrochloride]
antinociceptive activity (latency to heat) [1, 3]: no antinociceptive activity was detected

NCCCC(=O)O [GABA, γ-aminobutyric acid]
latency in response to heat sensation ([1]; GABA 2.39 mg/kg, >10-folds higher dose than the conjugate, FIG. 6): had no activity | antinociceptive activity (latency to heat) ([1]; GABA orally for 5 consecutive days, three different doses, FIG. 8): No antinociceptive activity was detected

CNCCC(Oc1ccc(C(F)(F)F)cc1)c1ccccc1 (centres unmarked) [fluoxetine]
antinociceptive effect (latency to heat) during repeated treatment ([1]; repeated oral treatment daily for 11 days, fluoxetine 10 mg/kg or equimolar conjugate, FIGS. 5B-E): significantly better antinociceptive effect compared to untreated animals | response to heat sensation prior to daily treatment ([1]; repeated oral treatment daily for 11 days, fluoxetine 10 mg/kg or equimolar conjugate, tested at days 3, 7, 9 and 11, vs vehicle, FIG. 5A): A delay was noted only on day 11 | oedema response in rats [2]: previously shown to reduce oedema response in rats

CNCCC=C1c2ccccc2CCc2ccccc21 [nortriptyline]
latency of response to heat ([1]; p.o. 0.25 mg/kg nortriptyline or equimolar conjugate (0.32 mg/kg), 4 hours following treatment, vs untreated mice, FIG. 2A): increased significantly the latency of response compared to untreated mice | latency of response to heat, onset ([1]; p.o. 0.5 mg/kg nortriptyline, time course, vs vehicle, FIG. 2B): significant latency, (compared to vehicle treated animals), after 4 hours only | latency of response to heat ([1]; single p.o. dose, 0.5 mg/kg nortriptyline or equimolar dose of conjugate, two hours after administration, FIG. 1, 0.5 mg/kg): significantly less effective; also recorded: did not differ significantly (p>0.05) from control mice | latency of response to heat ([1]; single p.o. dose, 4.5 mg/kg nortriptyline or equimolar dose of conjugate, two hours after administration, vs vehicle, p<0.05, FIG. 1): significant delay in the response compared to control mice
